Results taken from publication PMC12090182, “Repurposing of the RIPK1-Selective Benzo[1,4]oxazepin-4-one Scaffold for the Development of a Type III LIMK1/2 Inhibitor” (ACS Chemical Biology, 2025).
Like-named read-outs stand apart in the source and are kept apart here.

How the values were obtained:
PRKX = PRKX (Homo sapiens, UniProt P51817); assay type: cell-based; conditions: HEK-293T; 1 μM inhibitor, HEK293T cells
Protocol: (§1) For plate preparation, a transfection mix was prepared in white 384-well small-volume plates (Greiner, cat. no. 784075) by preplating 3 μL of 20 μL/mL FuGene HD (Promega, cat. no. E2311), diluted in an Opti-MEM medium (Gibco, cat. no. 11058-021). One μL of DNA from both DNA vector source plates of the K192 kit was added using an Echo 550 acoustic dispenser (Beckman Coulter). The mix was incubated for 30 min, and 6 μL of HEK293T cells in an Opti-MEM medium was added. The proteins were allowed to express for 20 h. After expression, Tracer K10 was added using the concentrations recommended in the K192 technical manual and a 1 μM inhibitor was added to every second well. […] Five μL of substrate solution was added to every well, and filtered luminescence was measured on a PHERAstar plate reader (BMG Labtech) equipped with a luminescence filter pair (450 nm BP filter (donor) and a 610 nm LP filter (acceptor)). For every kinase, occupancy was calculated and plotted using GraphPad Prism 10 (Table S5).

AAK1 = AAK1 (Homo sapiens, UniProt Q2M2I8); assay type: cell-based; conditions: HEK-293T; 1 μM inhibitor, HEK293T cells
Protocol: as §1

SIK1 = SIK1 (Homo sapiens, UniProt P57059); assay type: cell-based; conditions: HEK-293T; 1 μM inhibitor, HEK293T cells
Protocol: as §1

BRSK2 = BRSK2 (Homo sapiens, UniProt Q8IWQ3); assay type: cell-based; conditions: HEK-293T; 1 μM inhibitor, HEK293T cells
Chain of BRSK2 (Q8IWQ3 whole entry): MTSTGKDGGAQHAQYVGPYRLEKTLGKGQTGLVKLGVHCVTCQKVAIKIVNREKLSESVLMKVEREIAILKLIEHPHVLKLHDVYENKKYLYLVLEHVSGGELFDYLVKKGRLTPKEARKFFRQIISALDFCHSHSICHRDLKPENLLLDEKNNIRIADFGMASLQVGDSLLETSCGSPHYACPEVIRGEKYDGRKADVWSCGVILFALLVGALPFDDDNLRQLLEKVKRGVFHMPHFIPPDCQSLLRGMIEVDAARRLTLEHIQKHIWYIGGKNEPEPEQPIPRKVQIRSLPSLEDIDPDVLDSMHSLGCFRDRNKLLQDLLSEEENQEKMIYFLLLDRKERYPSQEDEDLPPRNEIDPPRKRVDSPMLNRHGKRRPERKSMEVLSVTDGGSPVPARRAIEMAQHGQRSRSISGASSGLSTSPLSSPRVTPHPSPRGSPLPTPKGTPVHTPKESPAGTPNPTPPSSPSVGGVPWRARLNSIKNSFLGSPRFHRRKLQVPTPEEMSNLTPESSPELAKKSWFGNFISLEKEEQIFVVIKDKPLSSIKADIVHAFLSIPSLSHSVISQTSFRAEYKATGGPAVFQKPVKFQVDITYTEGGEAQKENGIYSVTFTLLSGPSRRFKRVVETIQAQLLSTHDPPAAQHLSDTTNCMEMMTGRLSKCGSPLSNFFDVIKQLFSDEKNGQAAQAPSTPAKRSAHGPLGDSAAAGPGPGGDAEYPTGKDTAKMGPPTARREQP
Protocol: as §1

CDK17 = CDK17 (Homo sapiens, UniProt Q00537); assay type: cell-based; conditions: HEK-293T; 1 μM inhibitor, HEK293T cells
Protocol: as §1

ERN1 = ERN1 (Homo sapiens, UniProt O75460); assay type: cell-based; conditions: HEK-293T; 1 μM inhibitor, HEK293T cells
Protocol: as §1

CAMK1 = CAMK1 (Homo sapiens, UniProt Q14012); assay type: cell-based; conditions: HEK-293T; 1 μM inhibitor, HEK293T cells
Protocol: as §1

MAP3K2 = MAP3K2 (Homo sapiens, UniProt Q9Y2U5); assay type: cell-based; conditions: HEK-293T; 1 μM inhibitor, HEK293T cells
Protocol: as §1

LTK = LTK (Homo sapiens, UniProt P29376); assay type: cell-based; conditions: 1 μM inhibitor, HEK293T cells
Protocol: as §1

DCLK3 = DCLK3 (Homo sapiens, UniProt Q9C098); assay type: cell-based; conditions: HEK-293T; 1 μM inhibitor, HEK293T cells
Chain of DCLK3 (Q9C098 whole entry): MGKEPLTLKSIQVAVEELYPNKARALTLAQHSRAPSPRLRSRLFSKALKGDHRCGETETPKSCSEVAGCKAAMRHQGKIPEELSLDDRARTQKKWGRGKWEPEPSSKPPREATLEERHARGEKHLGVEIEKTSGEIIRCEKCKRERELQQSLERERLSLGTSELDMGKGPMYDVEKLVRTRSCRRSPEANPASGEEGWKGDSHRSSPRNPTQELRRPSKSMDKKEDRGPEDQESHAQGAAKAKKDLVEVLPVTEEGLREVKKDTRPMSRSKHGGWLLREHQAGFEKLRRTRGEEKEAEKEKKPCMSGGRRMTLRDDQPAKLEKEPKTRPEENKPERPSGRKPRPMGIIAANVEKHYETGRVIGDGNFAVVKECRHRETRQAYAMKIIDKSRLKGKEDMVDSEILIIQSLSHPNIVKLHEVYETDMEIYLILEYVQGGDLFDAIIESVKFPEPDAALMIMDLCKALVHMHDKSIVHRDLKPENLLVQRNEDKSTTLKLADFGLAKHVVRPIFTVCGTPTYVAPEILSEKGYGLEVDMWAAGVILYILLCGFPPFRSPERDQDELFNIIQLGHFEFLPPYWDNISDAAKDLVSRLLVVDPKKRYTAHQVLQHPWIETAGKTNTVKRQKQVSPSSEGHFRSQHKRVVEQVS
Protocol: as §1

AXL = AXL (Homo sapiens, UniProt P30530); assay type: cell-based; conditions: HEK-293T; 1 μM inhibitor, HEK293T cells
Protocol: as §1

EPHB4 = EPHB4 (Homo sapiens, UniProt P54760); assay type: cell-based; conditions: HEK-293T; 1 μM inhibitor, HEK293T cells
Protocol: as §1

CDK16 = CDK16 (Homo sapiens, UniProt Q00536); assay type: cell-based; conditions: HEK-293T; 1 μM inhibitor, HEK293T cells
Protocol: as §1

FYN = FYN (Homo sapiens, UniProt P06241); assay type: cell-based; conditions: HEK-293T; 1 μM inhibitor, HEK293T cells
Protocol: as §1

CDK2 = CDK2 (Homo sapiens, UniProt P24941); assay type: cell-based; conditions: HEK-293T; 1 μM inhibitor, HEK293T cells
Protocol: as §1

STK33 = STK33 (Homo sapiens, UniProt Q9BYT3); assay type: cell-based; conditions: HEK-293T; 1 μM inhibitor, HEK293T cells
Protocol: as §1

STK36 = STK36 (Homo sapiens, UniProt Q9NRP7); assay type: cell-based; conditions: HEK-293T; 1 μM inhibitor, HEK293T cells
Protocol: as §1

ABL2 = ABL2 (Homo sapiens, UniProt P42684); assay type: cell-based; conditions: HEK-293T; 1 μM inhibitor, HEK293T cells
Protocol: as §1

EPHA7 = EPHA7 (Homo sapiens, UniProt Q15375); assay type: cell-based; conditions: HEK-293T; 1 μM inhibitor, HEK293T cells
Protocol: as §1

CSNK2A1 = CSNK2A1 (Homo sapiens, UniProt P68400); assay type: cell-based; conditions: HEK-293T; 1 μM inhibitor, HEK293T cells
Protocol: as §1

PIK3CA(C420R) = PIK3CA(C420R) (Homo sapiens, UniProt P42336, C420R); test: biochemical; assay type: binding; conditions: read-out: Percent Control
FLT3(K663Q) = FLT3(K663Q) (Homo sapiens, UniProt P36888, K663Q); test: biochemical; assay type: binding; conditions: 1000 nM, read-out: Percent Control
KIT(D816H) = KIT(D816H) (Homo sapiens, UniProt P10721, D816H); test: biochemical; assay type: binding; conditions: 1000 nM, read-out: Percent Control
[1] = biological target: ABL1(M351T)-phosphorylated (Homo sapiens, UniProt P00519, M351T); test: biochemical; assay type: binding; conditions: compound concentration 100 nM; Entrez ABL1; read-out: Percent Control
FLT3(ITD,F691L) = assay type: binding; conditions: 1000 nM
[2] = biological target: ABL1(T315I)-phosphorylated (Homo sapiens, UniProt P00519, T315I); test: biochemical; assay type: binding; conditions: read-out: Percent Control
MET(M1250T) = MET(M1250T) (Homo sapiens, UniProt P08581, M1250T); test: biochemical; assay type: binding; conditions: 1000 nM, read-out: Percent Control
BRAF(V600E) = BRAF(V600E) (Homo sapiens, UniProt P15056, V600E); test: biochemical; assay type: binding; conditions: compound concentration 100 nM; Entrez BRAF; read-out: Percent Control
Chain of BRAF(V600E) (P15056 whole entry V600E): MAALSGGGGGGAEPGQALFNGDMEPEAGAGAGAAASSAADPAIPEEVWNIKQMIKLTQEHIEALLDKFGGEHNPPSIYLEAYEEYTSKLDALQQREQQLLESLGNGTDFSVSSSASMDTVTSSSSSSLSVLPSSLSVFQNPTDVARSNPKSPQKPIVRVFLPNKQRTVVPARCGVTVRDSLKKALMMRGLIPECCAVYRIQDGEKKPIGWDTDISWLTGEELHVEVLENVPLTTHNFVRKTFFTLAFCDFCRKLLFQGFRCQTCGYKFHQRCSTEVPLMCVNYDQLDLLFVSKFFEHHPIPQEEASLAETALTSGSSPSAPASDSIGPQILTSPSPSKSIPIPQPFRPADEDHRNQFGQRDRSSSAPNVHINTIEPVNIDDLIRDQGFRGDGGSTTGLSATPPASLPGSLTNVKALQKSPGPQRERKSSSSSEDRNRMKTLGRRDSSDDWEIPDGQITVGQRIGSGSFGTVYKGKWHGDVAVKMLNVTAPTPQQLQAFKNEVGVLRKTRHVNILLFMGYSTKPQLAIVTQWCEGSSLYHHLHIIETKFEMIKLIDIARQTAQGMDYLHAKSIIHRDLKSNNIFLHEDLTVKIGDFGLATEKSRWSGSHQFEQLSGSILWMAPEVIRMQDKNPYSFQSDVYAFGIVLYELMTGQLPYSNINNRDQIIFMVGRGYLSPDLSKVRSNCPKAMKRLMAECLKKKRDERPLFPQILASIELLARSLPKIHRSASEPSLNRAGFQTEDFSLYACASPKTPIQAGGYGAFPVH

[3] = biological target: ABL1(H396P)-phosphorylated (Homo sapiens, UniProt P00519, H396P); test: biochemical; assay type: binding; conditions: read-out: Percent Control
[4] = biological target: EGFR(L747-S752del, P753S) (Homo sapiens, UniProt P00533, DEL747-752/P753S); test: biochemical; assay type: binding; conditions: read-out: Percent Control
LRRK2 = LRRK2 (Homo sapiens, UniProt Q5S007); test: scanMAX KINOMEscan (Eurofins); assay type: binding
Chain of LRRK2 (Q5S007 whole entry): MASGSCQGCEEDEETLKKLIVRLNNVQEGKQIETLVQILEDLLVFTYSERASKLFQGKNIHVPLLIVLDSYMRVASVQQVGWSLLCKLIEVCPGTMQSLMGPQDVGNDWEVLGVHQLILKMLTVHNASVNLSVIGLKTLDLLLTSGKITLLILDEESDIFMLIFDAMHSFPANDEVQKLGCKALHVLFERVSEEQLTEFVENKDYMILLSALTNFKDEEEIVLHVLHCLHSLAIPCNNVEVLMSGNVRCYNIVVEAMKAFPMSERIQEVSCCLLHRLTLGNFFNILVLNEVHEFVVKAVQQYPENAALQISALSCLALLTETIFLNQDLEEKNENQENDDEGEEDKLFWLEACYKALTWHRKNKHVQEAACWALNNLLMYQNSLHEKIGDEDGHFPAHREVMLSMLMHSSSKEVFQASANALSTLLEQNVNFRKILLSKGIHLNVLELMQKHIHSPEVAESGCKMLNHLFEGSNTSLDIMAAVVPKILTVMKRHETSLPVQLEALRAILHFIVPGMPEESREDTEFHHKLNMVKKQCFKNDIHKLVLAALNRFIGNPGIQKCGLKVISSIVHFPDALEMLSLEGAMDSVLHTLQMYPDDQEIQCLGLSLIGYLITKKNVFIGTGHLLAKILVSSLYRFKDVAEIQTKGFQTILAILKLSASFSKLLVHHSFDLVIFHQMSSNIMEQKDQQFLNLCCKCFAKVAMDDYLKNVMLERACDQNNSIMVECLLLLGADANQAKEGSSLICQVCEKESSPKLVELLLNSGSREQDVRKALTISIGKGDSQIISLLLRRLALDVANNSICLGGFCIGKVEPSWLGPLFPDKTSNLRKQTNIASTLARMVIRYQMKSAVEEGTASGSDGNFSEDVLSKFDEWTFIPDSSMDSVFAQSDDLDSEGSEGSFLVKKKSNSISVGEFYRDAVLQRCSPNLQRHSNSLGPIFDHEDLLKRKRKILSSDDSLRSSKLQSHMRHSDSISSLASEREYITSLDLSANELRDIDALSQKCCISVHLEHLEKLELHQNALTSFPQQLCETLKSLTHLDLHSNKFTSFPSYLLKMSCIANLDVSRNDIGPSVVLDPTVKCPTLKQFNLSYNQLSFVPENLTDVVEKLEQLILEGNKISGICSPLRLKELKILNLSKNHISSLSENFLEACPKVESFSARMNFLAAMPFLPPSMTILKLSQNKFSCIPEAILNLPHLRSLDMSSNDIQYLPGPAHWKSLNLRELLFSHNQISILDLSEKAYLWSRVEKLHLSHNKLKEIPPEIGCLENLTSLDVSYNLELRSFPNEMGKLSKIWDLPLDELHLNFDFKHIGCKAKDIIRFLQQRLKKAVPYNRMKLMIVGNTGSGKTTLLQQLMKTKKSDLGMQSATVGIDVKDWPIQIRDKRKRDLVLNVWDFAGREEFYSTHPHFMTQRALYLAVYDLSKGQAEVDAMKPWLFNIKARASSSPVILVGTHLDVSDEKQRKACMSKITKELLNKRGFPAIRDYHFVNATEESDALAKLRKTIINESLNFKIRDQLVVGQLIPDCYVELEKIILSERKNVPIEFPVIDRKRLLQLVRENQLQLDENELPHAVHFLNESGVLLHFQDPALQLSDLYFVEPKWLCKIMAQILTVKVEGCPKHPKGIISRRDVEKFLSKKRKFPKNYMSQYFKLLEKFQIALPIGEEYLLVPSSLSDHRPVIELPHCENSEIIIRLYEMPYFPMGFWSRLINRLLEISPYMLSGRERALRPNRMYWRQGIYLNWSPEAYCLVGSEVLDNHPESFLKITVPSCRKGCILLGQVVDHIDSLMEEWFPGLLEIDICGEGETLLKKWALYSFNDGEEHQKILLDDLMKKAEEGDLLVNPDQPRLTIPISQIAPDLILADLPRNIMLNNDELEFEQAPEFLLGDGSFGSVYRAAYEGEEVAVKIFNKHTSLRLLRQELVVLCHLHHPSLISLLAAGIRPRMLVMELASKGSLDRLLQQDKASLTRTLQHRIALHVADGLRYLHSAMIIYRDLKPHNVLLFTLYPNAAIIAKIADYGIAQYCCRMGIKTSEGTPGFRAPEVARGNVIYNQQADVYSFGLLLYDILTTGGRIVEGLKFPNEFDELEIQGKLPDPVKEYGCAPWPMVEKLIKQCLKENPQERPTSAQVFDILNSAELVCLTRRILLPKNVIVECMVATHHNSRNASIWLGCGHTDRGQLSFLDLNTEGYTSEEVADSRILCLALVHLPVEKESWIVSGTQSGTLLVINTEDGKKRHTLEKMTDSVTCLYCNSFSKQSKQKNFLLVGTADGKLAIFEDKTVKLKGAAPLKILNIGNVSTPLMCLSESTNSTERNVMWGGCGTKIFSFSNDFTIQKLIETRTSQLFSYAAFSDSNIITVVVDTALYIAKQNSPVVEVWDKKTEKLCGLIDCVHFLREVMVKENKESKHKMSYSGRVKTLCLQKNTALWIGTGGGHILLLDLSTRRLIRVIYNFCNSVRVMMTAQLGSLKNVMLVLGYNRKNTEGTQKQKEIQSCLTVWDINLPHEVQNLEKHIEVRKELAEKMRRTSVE

ALK(C1156Y) = ALK(C1156Y) (Homo sapiens, UniProt Q9UM73, C1156Y); test: biochemical; assay type: binding; conditions: 1000 nM, read-out: Percent Control

Chain of PRKX (P51817 whole entry): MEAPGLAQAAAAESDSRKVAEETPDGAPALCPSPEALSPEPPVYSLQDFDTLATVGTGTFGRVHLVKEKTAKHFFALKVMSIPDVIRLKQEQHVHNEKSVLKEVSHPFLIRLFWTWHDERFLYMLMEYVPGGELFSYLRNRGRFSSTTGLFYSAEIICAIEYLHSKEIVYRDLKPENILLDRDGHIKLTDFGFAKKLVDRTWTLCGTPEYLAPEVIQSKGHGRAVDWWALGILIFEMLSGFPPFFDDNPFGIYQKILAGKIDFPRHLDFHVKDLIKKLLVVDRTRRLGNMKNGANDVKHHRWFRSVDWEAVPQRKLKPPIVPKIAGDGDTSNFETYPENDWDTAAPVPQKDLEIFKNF

Structure (SMILES): CN1C(=O)[C@@H](N2CCc3c(nn(Cc4ccccc4)c3C(N)=O)C2=O)COc2cc(Cl)ccc21 [Compound 10, (S)-2-benzyl-6-(8-chloro-5-methyl-4-oxo-2,3,4,5-tetrahydrobenzo[b][1,4]oxazepin-3-yl)-7-oxo-4,5,6,7-tetrahydro-2H-pyrazolo[3,4-c]pyridine-3-carboxamide]
- receptor occupancy at 1 µM (PRKX): 2.51%
- receptor occupancy at 1 µM (AAK1): 0.814%
- receptor occupancy at 1 µM (SIK1): -3.59%
- receptor occupancy at 1 µM (BRSK2): 2.53%
- receptor occupancy at 1 µM (CDK17): 4.13%
- receptor occupancy at 1 µM (ERN1): -1.52%
- receptor occupancy at 1 µM (CAMK1): 2.97%
- receptor occupancy at 1 µM (MAP3K2): -2.55%
- receptor occupancy at 1 µM (LTK): -4.01%
- receptor occupancy at 1 µM (DCLK3): 2.41%
- receptor occupancy at 1 µM (AXL): 2.28%
- receptor occupancy at 1 µM (EPHB4): 4.16%
- receptor occupancy at 1 µM (CDK16): -2.19%
- receptor occupancy at 1 µM (FYN): 5.88%
- receptor occupancy at 1 µM (CDK2): 6.33%
- receptor occupancy at 1 µM (STK33): 3.58%
- receptor occupancy at 1 µM (STK36): -3.44%
- receptor occupancy at 1 µM (ABL2): 6.33%
- receptor occupancy at 1 µM (EPHA7): -2.24%
- receptor occupancy at 1 µM (CSNK2A1): 3.96%
- remaining activity at 1 µM (PIK3CA(C420R)): 92%
- remaining activity at 1 µM (FLT3(K663Q)): 100%
- remaining activity at 1 µM (KIT(D816H)): 97%
- remaining activity at 0.1 µM [1]: 92%
- Percent Control (FLT3(ITD,F691L)): 100%
- remaining activity at 1 µM [2]: 99%
- remaining activity at 1 µM (MET(M1250T)): 83%
- remaining activity at 0.1 µM (BRAF(V600E)): 100%
- remaining activity at 1 µM [3]: 88%
- remaining activity at 1 µM [4]: 100%
- remaining binding at 0.1 µM (LRRK2; LRRK2 (Entrez LRRK2), 100 nM, read-out: Percent Control): 84%
- remaining binding at 1 µM (LRRK2; LRRK2, 1 μM, read-out: POC (Top Hits @ 1 μM)): 62%
- remaining binding at 1 µM (LRRK2; LRRK2, 1000 nM, read-out: Percent Control): 62%
- remaining activity at 1 µM (ALK(C1156Y)): 82%
